Experimental data from the NIST ThermoML archive (doi:10.1021/acs.jced.5b00105).
Numbers after ± are expanded uncertainties.

Assay: refractive index (Na D-line) (dimensionless); xn = mol fraction of the nth substance listed
Conditions: 100 kPa, Liquid

## CCC1CCCCC1 [ethylcyclohexane] + CC(C)CC(C)(C)C
293.15 K, x1 = 0.1
  refractive index: 1.3959 ± 0.0015
293.15 K, x1 = 0.2
  refractive index: 1.4005 ± 0.0015
293.15 K, x1 = 0.3003
  refractive index: 1.4043 ± 0.0015
293.15 K, x1 = 0.3997
  refractive index: 1.4084 ± 0.0015
293.15 K, x1 = 0.5002
  refractive index: 1.4123 ± 0.0015
293.15 K, x1 = 0.6005
  refractive index: 1.4167 ± 0.0015
293.15 K, x1 = 0.7002
  refractive index: 1.4207 ± 0.0015
293.15 K, x1 = 0.8003
  refractive index: 1.4254 ± 0.0015
293.15 K, x1 = 0.8997
  refractive index: 1.4295 ± 0.0015
293.15 K, x1 = 1
  refractive index: 1.4337 ± 0.0015
298.15 K, x1 = 0.1
  refractive index: 1.3926 ± 0.0015
298.15 K, x1 = 0.1999
  refractive index: 1.3965 ± 0.0015
298.15 K, x1 = 0.3
  refractive index: 1.4004 ± 0.0015
298.15 K, x1 = 0.4
  refractive index: 1.4046 ± 0.0015
298.15 K, x1 = 0.5
  refractive index: 1.4086 ± 0.0015
298.15 K, x1 = 0.6001
  refractive index: 1.4129 ± 0.0015
298.15 K, x1 = 0.7004
  refractive index: 1.4172 ± 0.0015
298.15 K, x1 = 0.8001
  refractive index: 1.4214 ± 0.0015
298.15 K, x1 = 0.8994
  refractive index: 1.4256 ± 0.0015
298.15 K, x1 = 1
  refractive index: 1.4301 ± 0.0015
303.15 K, x1 = 0.1
  refractive index: 1.3918 ± 0.0015
303.15 K, x1 = 0.2
  refractive index: 1.3964 ± 0.0015
303.15 K, x1 = 0.3003
  refractive index: 1.4003 ± 0.0015
303.15 K, x1 = 0.3997
  refractive index: 1.4041 ± 0.0015
303.15 K, x1 = 0.5002
  refractive index: 1.4084 ± 0.0015
303.15 K, x1 = 0.6005
  refractive index: 1.4125 ± 0.0015
303.15 K, x1 = 0.7002
  refractive index: 1.4169 ± 0.0015
303.15 K, x1 = 0.8003
  refractive index: 1.4211 ± 0.0015
303.15 K, x1 = 0.8997
  refractive index: 1.4253 ± 0.0015
303.15 K, x1 = 1
  refractive index: 1.4295 ± 0.0015
308.15 K, x1 = 0.1
  refractive index: 1.3889 ± 0.0015
308.15 K, x1 = 0.1999
  refractive index: 1.3932 ± 0.0015
308.15 K, x1 = 0.3
  refractive index: 1.3975 ± 0.0015
308.15 K, x1 = 0.4
  refractive index: 1.4015 ± 0.0015
308.15 K, x1 = 0.5
  refractive index: 1.4059 ± 0.0015
308.15 K, x1 = 0.6001
  refractive index: 1.4098 ± 0.0015
308.15 K, x1 = 0.7004
  refractive index: 1.4146 ± 0.0015
308.15 K, x1 = 0.8001
  refractive index: 1.4186 ± 0.0015
308.15 K, x1 = 0.8994
  refractive index: 1.4228 ± 0.0015
308.15 K, x1 = 1
  refractive index: 1.4278 ± 0.0015
313.15 K, x1 = 0.1
  refractive index: 1.3877 ± 0.0015
313.15 K, x1 = 0.2
  refractive index: 1.3924 ± 0.0015
313.15 K, x1 = 0.3003
  refractive index: 1.396 ± 0.0015
313.15 K, x1 = 0.3997
  refractive index: 1.4003 ± 0.0015
313.15 K, x1 = 0.5002
  refractive index: 1.4047 ± 0.0015
313.15 K, x1 = 0.6005
  refractive index: 1.4087 ± 0.0015
313.15 K, x1 = 0.7002
  refractive index: 1.4132 ± 0.0015
313.15 K, x1 = 0.8003
  refractive index: 1.4175 ± 0.0015
313.15 K, x1 = 0.8997
  refractive index: 1.4216 ± 0.0015
313.15 K, x1 = 1
  refractive index: 1.4259 ± 0.0015
318.15 K, x1 = 0.1
  refractive index: 1.3826 ± 0.0015
318.15 K, x1 = 0.1999
  refractive index: 1.3867 ± 0.0015
318.15 K, x1 = 0.3
  refractive index: 1.3912 ± 0.0015
318.15 K, x1 = 0.4
  refractive index: 1.3954 ± 0.0015
318.15 K, x1 = 0.5
  refractive index: 1.3996 ± 0.0015
318.15 K, x1 = 0.6001
  refractive index: 1.4037 ± 0.0015
318.15 K, x1 = 0.7004
  refractive index: 1.4081 ± 0.0015
318.15 K, x1 = 0.8001
  refractive index: 1.4118 ± 0.0015
318.15 K, x1 = 0.8994
  refractive index: 1.4161 ± 0.0015
318.15 K, x1 = 1
  refractive index: 1.4204 ± 0.0015
323.15 K, x1 = 0.1
  refractive index: 1.3805 ± 0.0015
323.15 K, x1 = 0.1999
  refractive index: 1.3849 ± 0.0015
323.15 K, x1 = 0.3
  refractive index: 1.3891 ± 0.0015
323.15 K, x1 = 0.4
  refractive index: 1.3931 ± 0.0015
323.15 K, x1 = 0.5
  refractive index: 1.3975 ± 0.0015
323.15 K, x1 = 0.6001
  refractive index: 1.4015 ± 0.0015
323.15 K, x1 = 0.7004
  refractive index: 1.4059 ± 0.0015
323.15 K, x1 = 0.8001
  refractive index: 1.4097 ± 0.0015
323.15 K, x1 = 0.8994
  refractive index: 1.4144 ± 0.0015
323.15 K, x1 = 1
  refractive index: 1.4187 ± 0.0015

## CCCCC1CCCCC1 [butylcyclohexane] + CC(C)CC(C)(C)C
293.15 K, x1 = 0.0999
  refractive index: 1.3972 ± 0.0015
293.15 K, x1 = 0.2002
  refractive index: 1.4026 ± 0.0015
293.15 K, x1 = 0.3001
  refractive index: 1.4079 ± 0.0015
293.15 K, x1 = 0.3996
  refractive index: 1.413 ± 0.0015
293.15 K, x1 = 0.5005
  refractive index: 1.4181 ± 0.0015
293.15 K, x1 = 0.6003
  refractive index: 1.423 ± 0.0015
293.15 K, x1 = 0.6994
  refractive index: 1.4276 ± 0.0015
293.15 K, x1 = 0.8
  refractive index: 1.4321 ± 0.0015
293.15 K, x1 = 0.9001
  refractive index: 1.4362 ± 0.0015
293.15 K, x1 = 1
  refractive index: 1.4403 ± 0.0015
298.15 K, x1 = 0.1008
  refractive index: 1.3944 ± 0.0015
298.15 K, x1 = 0.2
  refractive index: 1.4001 ± 0.0015
298.15 K, x1 = 0.3001
  refractive index: 1.4055 ± 0.0015
298.15 K, x1 = 0.3999
  refractive index: 1.4105 ± 0.0015
298.15 K, x1 = 0.5004
  refractive index: 1.4155 ± 0.0015
298.15 K, x1 = 0.5999
  refractive index: 1.4204 ± 0.0015
298.15 K, x1 = 0.6995
  refractive index: 1.4249 ± 0.0015
298.15 K, x1 = 0.7998
  refractive index: 1.4295 ± 0.0015
298.15 K, x1 = 0.9
  refractive index: 1.4335 ± 0.0015
298.15 K, x1 = 1
  refractive index: 1.4377 ± 0.0015
303.15 K, x1 = 0.0999
  refractive index: 1.3928 ± 0.0015
303.15 K, x1 = 0.2002
  refractive index: 1.3981 ± 0.0015
303.15 K, x1 = 0.3001
  refractive index: 1.4034 ± 0.0015
303.15 K, x1 = 0.3996
  refractive index: 1.4087 ± 0.0015
303.15 K, x1 = 0.5005
  refractive index: 1.4139 ± 0.0015
303.15 K, x1 = 0.6003
  refractive index: 1.4186 ± 0.0015
303.15 K, x1 = 0.6994
  refractive index: 1.423 ± 0.0015
303.15 K, x1 = 0.8
  refractive index: 1.4274 ± 0.0015
303.15 K, x1 = 0.9001
  refractive index: 1.4314 ± 0.0015
303.15 K, x1 = 1
  refractive index: 1.4355 ± 0.0015
308.15 K, x1 = 0.1008
  refractive index: 1.3898 ± 0.0015
308.15 K, x1 = 0.2
  refractive index: 1.3953 ± 0.0015
308.15 K, x1 = 0.3001
  refractive index: 1.4008 ± 0.0015
308.15 K, x1 = 0.3999
  refractive index: 1.4057 ± 0.0015
308.15 K, x1 = 0.5004
  refractive index: 1.4112 ± 0.0015
308.15 K, x1 = 0.5999
  refractive index: 1.4158 ± 0.0015
308.15 K, x1 = 0.6995
  refractive index: 1.4207 ± 0.0015
308.15 K, x1 = 0.7998
  refractive index: 1.4249 ± 0.0015
308.15 K, x1 = 0.9
  refractive index: 1.4292 ± 0.0015
308.15 K, x1 = 1
  refractive index: 1.4333 ± 0.0015
313.15 K, x1 = 0.0999
  refractive index: 1.3884 ± 0.0015
313.15 K, x1 = 0.2002
  refractive index: 1.3935 ± 0.0015
313.15 K, x1 = 0.3001
  refractive index: 1.3988 ± 0.0015
313.15 K, x1 = 0.3996
  refractive index: 1.4042 ± 0.0015
313.15 K, x1 = 0.5005
  refractive index: 1.4094 ± 0.0015
313.15 K, x1 = 0.6003
  refractive index: 1.4141 ± 0.0015
313.15 K, x1 = 0.6994
  refractive index: 1.4185 ± 0.0015
313.15 K, x1 = 0.8
  refractive index: 1.4229 ± 0.0015
313.15 K, x1 = 0.9001
  refractive index: 1.4271 ± 0.0015
313.15 K, x1 = 1
  refractive index: 1.4314 ± 0.0015
318.15 K, x1 = 0.1008
  refractive index: 1.3849 ± 0.0015
318.15 K, x1 = 0.2
  refractive index: 1.3907 ± 0.0015
318.15 K, x1 = 0.3001
  refractive index: 1.3959 ± 0.0015
318.15 K, x1 = 0.3999
  refractive index: 1.4015 ± 0.0015
318.15 K, x1 = 0.5004
  refractive index: 1.4069 ± 0.0015
318.15 K, x1 = 0.5999
  refractive index: 1.4118 ± 0.0015
318.15 K, x1 = 0.6995
  refractive index: 1.4161 ± 0.0015
318.15 K, x1 = 0.7998
  refractive index: 1.4208 ± 0.0015
318.15 K, x1 = 0.9
  refractive index: 1.4248 ± 0.0015
318.15 K, x1 = 1
  refractive index: 1.429 ± 0.0015
323.15 K, x1 = 0.1008
  refractive index: 1.3824 ± 0.0015
323.15 K, x1 = 0.2
  refractive index: 1.3885 ± 0.0015
323.15 K, x1 = 0.3001
  refractive index: 1.3943 ± 0.0015
323.15 K, x1 = 0.3999
  refractive index: 1.3993 ± 0.0015
323.15 K, x1 = 0.5004
  refractive index: 1.4045 ± 0.0015
323.15 K, x1 = 0.5999
  refractive index: 1.4093 ± 0.0015
323.15 K, x1 = 0.6995
  refractive index: 1.4145 ± 0.0015
323.15 K, x1 = 0.7998
  refractive index: 1.4184 ± 0.0015
323.15 K, x1 = 0.9
  refractive index: 1.4229 ± 0.0015
323.15 K, x1 = 1
  refractive index: 1.4268 ± 0.0015
